Measured values from the NIST ThermoML archive (doi:10.1021/je800248w).

Experiments:
[1] = excess molar enthalpy (molar enthalpy of mixing); xn = mol fraction of the nth substance listed; conditions: 101 kPa, Liquid, Calvet calorimetry
[2] = molar heat capacity at constant pressure; xn = mol fraction of the nth substance listed; conditions: 101.3 kPa, Liquid, Small sample (50 mg) DSC

CCn1cc[n+](C)c1.O=C([O-])C(F)(F)F [1-ethyl-3-methylimidazolium trifluoroacetate] + O
Conditions | excess molar enthalpy [kJ/mol] | molar heat capacity at constant pressure [J/K/mol]
[1], 313.04 K, x2 = 0.2499 | -1.32 | –
[1], 313.04 K, x2 = 0.25 | -1.32 | –
[1], 313.04 K, x2 = 0.498 | -2.14 | –
[1], 313.04 K, x2 = 0.4981 | -2.14 | –
[1], 313.04 K, x2 = 0.7483 | -2.05 | –
[1], 313.04 K, x2 = 0.7484 | -2.05 | –
[1], 323.04 K, x2 = 0.2474 | -1.31 | –
[1], 323.04 K, x2 = 0.2485 | -1.31 | –
[1], 323.04 K, x2 = 0.4967 | -2.1 | –
[1], 323.04 K, x2 = 0.4993 | -2.1 | –
[1], 323.04 K, x2 = 0.7472 | -1.96 | –
[1], 323.04 K, x2 = 0.7482 | -1.96 | –
[1], 333.06 K, x2 = 0.2464 | -1.3 | –
[1], 333.06 K, x2 = 0.2477 | -1.31 | –
[1], 333.06 K, x2 = 0.4934 | -2.06 | –
[1], 333.06 K, x2 = 0.4966 | -2.07 | –
[1], 333.06 K, x2 = 0.7466 | -1.88 | –
[1], 333.06 K, x2 = 0.7476 | -1.88 | –
[1], 348.06 K, x2 = 0.2486 | -1.3 | –
[1], 348.06 K, x2 = 0.2489 | -1.3 | –
[1], 348.06 K, x2 = 0.4979 | -2 | –
[1], 348.06 K, x2 = 0.4994 | -2 | –
[1], 348.06 K, x2 = 0.748 | -1.72 | –
[1], 348.06 K, x2 = 0.7484 | -1.72 | –
[2], 283.15 K, x2 = 0 | – | 308
[2], 283.15 K, x2 = 0.2025 | – | 264
[2], 283.15 K, x2 = 0.3973 | – | 226
[2], 283.15 K, x2 = 0.5817 | – | 182
[2], 283.15 K, x2 = 0.7562 | – | 139
[2], 283.15 K, x2 = 0.842 | – | 117
[2], 283.15 K, x2 = 0.9256 | – | 99
[2], 283.15 K, x2 = 0.9668 | – | 87
[2], 283.15 K, x2 = 0.9912 | – | 78
[2], 293.15 K, x2 = 0 | – | 313
[2], 293.15 K, x2 = 0.2025 | – | 269
[2], 293.15 K, x2 = 0.3973 | – | 231
[2], 293.15 K, x2 = 0.5817 | – | 186
[2], 293.15 K, x2 = 0.7562 | – | 143
[2], 293.15 K, x2 = 0.842 | – | 120
[2], 293.15 K, x2 = 0.9256 | – | 100
[2], 293.15 K, x2 = 0.9668 | – | 90
[2], 293.15 K, x2 = 0.9912 | – | 80
[2], 303.15 K, x2 = 0 | – | 320
[2], 303.15 K, x2 = 0.2025 | – | 274
[2], 303.15 K, x2 = 0.3973 | – | 238
[2], 303.15 K, x2 = 0.5817 | – | 191
[2], 303.15 K, x2 = 0.7562 | – | 147
[2], 303.15 K, x2 = 0.842 | – | 122
[2], 303.15 K, x2 = 0.9256 | – | 102
[2], 303.15 K, x2 = 0.9668 | – | 91
[2], 303.15 K, x2 = 0.9912 | – | 80
[2], 313.15 K, x2 = 0 | – | 324
[2], 313.15 K, x2 = 0.2025 | – | 276
[2], 313.15 K, x2 = 0.3973 | – | 241
[2], 313.15 K, x2 = 0.5817 | – | 194
[2], 313.15 K, x2 = 0.7562 | – | 150
[2], 313.15 K, x2 = 0.842 | – | 124
[2], 313.15 K, x2 = 0.9256 | – | 103
[2], 313.15 K, x2 = 0.9668 | – | 92
[2], 313.15 K, x2 = 0.9912 | – | 81
[2], 323.15 K, x2 = 0 | – | 328
[2], 323.15 K, x2 = 0.2025 | – | 280
[2], 323.15 K, x2 = 0.3973 | – | 245
[2], 323.15 K, x2 = 0.5817 | – | 198
[2], 323.15 K, x2 = 0.7562 | – | 153
[2], 323.15 K, x2 = 0.842 | – | 126
[2], 323.15 K, x2 = 0.9256 | – | 104
[2], 323.15 K, x2 = 0.9668 | – | 92
[2], 323.15 K, x2 = 0.9912 | – | 81
[2], 333.15 K, x2 = 0 | – | 332
[2], 333.15 K, x2 = 0.2025 | – | 285
[2], 333.15 K, x2 = 0.3973 | – | 251
[2], 333.15 K, x2 = 0.5817 | – | 201
[2], 333.15 K, x2 = 0.7562 | – | 155
[2], 333.15 K, x2 = 0.842 | – | 127
[2], 333.15 K, x2 = 0.9256 | – | 104
[2], 333.15 K, x2 = 0.9668 | – | 92
[2], 333.15 K, x2 = 0.9912 | – | 81
[2], 343.15 K, x2 = 0 | – | 337
[2], 343.15 K, x2 = 0.2025 | – | 290
[2], 343.15 K, x2 = 0.3973 | – | 254
[2], 343.15 K, x2 = 0.5817 | – | 204
[2], 343.15 K, x2 = 0.7562 | – | 157
[2], 343.15 K, x2 = 0.842 | – | 129
[2], 343.15 K, x2 = 0.9256 | – | 105
[2], 343.15 K, x2 = 0.9668 | – | 92
[2], 343.15 K, x2 = 0.9912 | – | 81
